In brackets after ≈: the same amount, converted by molar mass.
Test system: M. tuberculosis PE-003 multidrug-resistant clinical isolate
Test: microbe, parasite or virus in culture
Format: cell-based
Conditions: Mycobacterium tuberculosis, read-out: MIC PE-003 in μM

Row | SMILES | MIC [µM]
1 | CCOC(=O)c1ccc2nc(C)cc(Nc3ccc(N4CCCCC4)cc3)c2c1 [Labio_17] | 2.5 (≈ 0.974 µg/mL)
2 | Cc1ccccc1OCc1nc(-c2ccc(NC(=O)c3cccs3)cc2)no1 [Labio_16] | 1.5 (≈ 0.587 µg/mL)
